{"source": "paper PMC6920875", "about": "“Dithiocarbamate as a Valuable Scaffold for the Inhibition of Metallo-β-Lactmases” (Biomolecules, 2019)", "key": {"[1]": {"molecular_target": "T1, ImiS (Aeromonas veronii, UniProt O31272)", "T1 construct": "made in house; host or cells: E. coli BL21 (DE3), plasmid pET-26b-ImiS", "assay": "Inhibition kinetics, Lineweaver–Burk plots", "assay_type": "biochemical, Aeromonas veronii bv. sobria", "experimental": "(§1) The dithiocarbamates, MβLs and substrates samples were prepared with 30 mM Tris, pH 7.0. […] Enzymes and inhibitors were pre-incubated for 5 min before adding substrate. […] The IC50 values were nonlinearly fitted by plotting the average percentage inhibition against inhibitor concentration. The inhibition modes of DC1 to ImiS, NDM-1 and L1 were assayed by generating Lineweaver–Burk plots, and Ki values were obtained by fitting initial velocity versus substrate concentration at each inhibitor concentration, using SigmaPlot 12.0 (Systat Software Inc., San Jose, CA, USA).\nTo further identify the inhibition mode of the DCs against MβLs, we performed inhibition kinetics of NDM-1, ImiS and L1 by DC1, at different concentrations, with different substrate concentrations. […] Enzyme and inhibitors were pre-incubated for 5 min before starting the kinetic assays. All experimental hydrolytic rates of substrates were determined in triplicate. The inhibition mode of dithiocarbamates on MβLs was identified by generating Lineweaver–Burk plots, and Ki values were gained by fitting the initial velocity versus substrate concentration at each inhibitor concentration, using SigmaPlot 12.0."}, "[2]": {"molecular_target": "T2, L1 (Stenotrophomonas maltophilia, UniProt P52700)", "T2 construct": "made in house; host or cells: E. coli BL21 (DE3), plasmid pET-26b-L1", "T2 sequence (P52700 34-290)": "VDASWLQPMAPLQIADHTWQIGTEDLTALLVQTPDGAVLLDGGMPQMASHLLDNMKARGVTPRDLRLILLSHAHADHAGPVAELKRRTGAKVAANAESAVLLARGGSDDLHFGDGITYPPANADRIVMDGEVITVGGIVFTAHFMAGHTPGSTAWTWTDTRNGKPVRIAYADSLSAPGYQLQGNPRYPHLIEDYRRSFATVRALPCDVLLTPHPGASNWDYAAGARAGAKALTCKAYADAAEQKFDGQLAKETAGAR", "assay": "Inhibitor reversibility, activity recovery after rapid 100-fold dilution", "assay_type": "biochemical", "details": "5.8 μM enzyme, 25.3 μM inhibitor, 10 min pre-incubation", "experimental": "(§2) It can be observed in Figure 4d–f that the Q value remains almost unchanged in the presence or absence of inhibitors, likely because the formation of the enzyme-inhibitor complex (EI), that slowed down substrate hydrolysis, was reversible. […] We assayed the binding reversibility of DC1 to MβLs by measuring the enzymatic activity recovery after a large, rapid dilution of the MβL-DC1 complex.\n(§3) Determination of inhibitor reversibility\n(§4) NDM-1, ImiS and L1 were incubated at a concentration of 1.3, 5.0 and 5.8 μM, which is 100-fold over the concentration required for the activity assay, with DC1 at a concentration of 1.5, 0.7 and […]\n(§5) After 10 minutes pre-incubation, the recovery of enzymatic activity was determined after rapid and large dilution (100-fold) with the reaction […]\n(§6) Figure S2. Recovery of NDM-1 (a), ImiS (b) and L1 (c) activity after rapid dilution of the enzyme-inhibitor complex. The curve in black refers to the control sample pre-incubated and diluted in the absence of inhibitor. Curves in red refer to MβLs pre-incubated with DC1. […]"}, "[3]": {"molecular_target": "T3, NDM-1 (Klebsiella pneumoniae, UniProt C7C422)", "T3 construct": "made in house; host or cells: E. coli BL21 (DE3), plasmid pET26b-NDM-1", "T3 sequence (C7C422 29-270 limits assumed)": "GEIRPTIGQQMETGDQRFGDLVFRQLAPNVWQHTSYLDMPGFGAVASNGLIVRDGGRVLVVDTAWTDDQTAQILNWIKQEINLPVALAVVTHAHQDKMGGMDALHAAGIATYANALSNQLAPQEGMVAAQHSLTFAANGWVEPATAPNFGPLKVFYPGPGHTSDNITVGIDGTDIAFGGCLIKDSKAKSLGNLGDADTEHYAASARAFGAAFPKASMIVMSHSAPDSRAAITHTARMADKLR", "assay": "Inhibitor reversibility, activity recovery after rapid 100-fold dilution", "assay_type": "biochemical", "details": "1.3 μM enzyme, 10 min pre-incubation", "experimental": "as §2, §3, §4, §5, §6"}, "[4]": {"molecular_target": "T1, ImiS", "assay": "Inhibitor reversibility, activity recovery after rapid 100-fold dilution", "assay_type": "biochemical, Aeromonas veronii bv. sobria", "details": "5.0 μM enzyme, 0.7 μM inhibitor, 10 min pre-incubation", "experimental": "as §2, §3, §4, §5, §6"}, "[5]": {"test_system": "mouse fibroblast cells (L-929)", "assay": "Cytotoxicity assay (MTT)", "assay_type": "cell-based", "details": "concentration as high as 250 μM, 48 h", "experimental": "The cytotoxicity assays were performed to evaluate the toxicity of DC1, DC3, DC7 and DC9 in mouse fibroblast cells (L-929). The cells were seeded into 96-well plates at a cell density of 1.0 × 10^4 cells/well, in 100 μL of culture medium and maintained for 24 h. Then, the inhibitors with working concentrations (15.6, 31.25, 62.5, 125, 250, and 500 μM) were added to the 96-well plates and incubated for another 48 h. Three wells containing only cells were suspended in a mixture solution of 98 μL complete medium, as controls for cell viability without inhibitors. Three wells containing only the complete medium were used as blank controls. Following that, the medium was removed, and 100 μL of fresh culture medium and 10 μL MTT were added to each well. After incubation for 4 h, the trays were then vigorously shaken to solubilize the formed product, and the absorbance, at a wavelength of 490 nm, was read on a microplate reader and analyzed. All experiments were conducted in triplicate, and the data are expressed as mean ± standard deviation.\nThe potential toxicity of dthiocarbamates DC1, DC3, DC7 and DC9 as representatives was assayed using the mouse fibroblast cells (L929) treated with different concentrations of inhibitors (15.625, 31.25, 62.5, 125, 250 and 500 μM)."}, "[6]": {"molecular_target": "T2, L1", "assay": "biochemical", "details": "read-out: inhibition against L1", "experimental": "as §1\n(§7) To evaluate the inhibitory activity of the dithiocarbamates, we over-expressed and purified MβLs NDM-1, VIM-2 and IMP-1 (B1), ImiS (B2), and L1 (B3) from three subclasses as previously reported. The inhibition experiments were performed with an Agilent UV8453 spectrometer. […] The concentrations of inhibitors were varied between 0 and 200 μM. The initial reaction rates were determined in the absence and presence of inhibitors in triplicate, and the generated average values were recorded."}, "[7]": {"molecular_target": "T4, IMP-1 (Serratia marcescens, UniProt P52699)", "T4 construct": "made in house; host or cells: E. coli BL21 (DE3), plasmid pET26b-IMP-1", "T4 sequence (P52699 19-246 limits assumed)": "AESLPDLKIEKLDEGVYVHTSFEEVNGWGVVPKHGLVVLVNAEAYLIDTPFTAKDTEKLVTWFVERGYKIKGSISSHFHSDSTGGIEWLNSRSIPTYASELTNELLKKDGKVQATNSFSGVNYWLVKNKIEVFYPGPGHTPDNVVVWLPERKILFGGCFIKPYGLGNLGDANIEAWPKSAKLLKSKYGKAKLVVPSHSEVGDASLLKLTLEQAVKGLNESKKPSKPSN", "assay": "biochemical", "details": "read-out: inhibition against IMP-1", "experimental": "as §1, §7"}, "[8]": {"molecular_target": "T3, NDM-1", "assay": "biochemical", "details": "read-out: inhibition against NDM-1", "experimental": "as §1, §7"}}}
{"smiles": "O=C(NNC(=S)[S][K])c1ccccc1O", "note": "[DC1]", "values": [{"measurement": "inhibition mode against ImiS", "setting": "[1]; Lineweaver–Burk plots", "result": "partially mixed inhibition"}, {"measurement": "Ki", "setting": "[1]; read-out: Ki against ImiS, imipenem 20-120 µM, inhibitor 0-20 μM, SigmaPlot fit", "result": 140, "unit": "nM"}, {"measurement": "reversibility, recovery of L1 activity after rapid dilution", "setting": "[2]", "result": "reversible inhibitor"}, {"measurement": "reversibility, recovery of NDM-1 activity after rapid dilution", "setting": "[3]", "result": "reversible inhibitor"}, {"measurement": "reversibility, recovery of ImiS activity after rapid dilution", "setting": "[4]", "result": "reversible inhibitor"}, {"measurement": "survival rate of L929 mouse cells", "setting": "[5]", "result": "higher than 80%"}, {"measurement": "inhibition at 8 µM", "setting": "[6]", "result": "> 90", "unit": "%"}, {"measurement": "inhibition at 10 µM", "setting": "[7]", "result": "> 90", "unit": "%"}, {"measurement": "inhibition at 20 µM", "setting": "[8]", "result": "> 90", "unit": "%"}]}
